Patent US10815238B2, “Antimicrobial compounds and methods of making and using the same” (BIOVERSYS AG, priority 2013, dated 2020)

System: Eschericia coli (E. coli) strain ATCC25922
Assay: Standard microdilution assay, MIC against E. coli ATCC25922
Format: cell-based
Details: Escherichia coli; E. coli strain ATCC25922, standard microdilution assay; cutoff 16 micrograms/mL; read-out: MIC E. Coli
Outline: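 Scoring as + or − used a 16 micrograms/mL cutoff on minimum inhibitory concentrations. These came from CLSI-standard microdilution, quality-controlled with reference strains tested in the same run.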

`C[C@H](N)CCCc1cc(SC(F)(F)F)cc(-c2cc3cn(-c4ccc(CNCC(=O)O)cc4)c(=O)nc3[nH]2)c1` [Compound 116] and `C[C@H](N)CCCc1cc(SC(F)(F)F)cc(-c2cc3cn(-c4ccc(CNCCC(=O)O)cc4)c(=O)nc3[nH]2)c1` [Compound 140] cannot be ordered by MIC: > 16 µg/mL for the first, > 16 µg/mL for the second.

`C[C@H](NCCCNC(=N)N)c1ccc(-n2cc3cc(-c4cc(CCC[C@@H](N)CF)cc(SC(F)(F)F)c4)[nH]c3nc2=O)cc1` [Compound 117] and `COC[C@H](N)CCCc1cc(SC(F)(F)F)cc(-c2cc3cn(-c4ccc([C@H](C)NCCCNC(=N)N)cc4)c(=O)nc3[nH]2)c1` [Compound 130] cannot be ordered by MIC: < 16 µg/mL for the first, < 16 µg/mL for the second.

`C[C@H](N)CCCc1cc(Cl)c(F)c(-c2cc3cn(-c4ccc([C@@H](N)CCCCNC(=N)N)cc4)c(=O)nc3[nH]2)c1` [Compound 118] and `C[C@H](N)CCCc1cc(Cl)c(F)c(-c2cc3cn(-c4ccc([C@H](CF)NCCCNC(=N)N)cc4)c(=O)nc3[nH]2)c1` [Compound 150] cannot be ordered by MIC: < 16 µg/mL for the first, < 16 µg/mL for the second.

`C[C@H](N)CCCc1cc(Cl)c(F)c(-c2cc3cn(-c4ccc(CNCc5c[nH]nn5)cc4)c(=O)nc3[nH]2)c1` [Compound 119] and `C[C@H](N)CCCc1cc(Cl)c(F)c(-c2cc3cn(-c4ccc(CNCc5nn[nH]n5)cc4)c(=O)nc3[nH]2)c1` [Compound 162] cannot be ordered by MIC: > 16 µg/mL for the first, > 16 µg/mL for the second.

`COc1ccc(Cn2cc(CNCc3ccc(-n4cc5cc(-c6cc(CCC[C@H](C)N)cc(Cl)c6F)[nH]c5nc4=O)cc3)nn2)cc1` [Compound 120] and `COc1ccc(Cn2cc(CNCc3ccc(-n4cc5cc(-c6cc(CCC[C@H](C)N)cc(SC(F)(F)F)c6)[nH]c5nc4=O)cc3)nn2)cc1` [Compound 122] cannot be ordered by MIC: > 16 µg/mL for the first, > 16 µg/mL for the second.

`C[C@H](N)CCCc1cc(SC(F)(F)F)cc(-c2cc3cn(-c4ccc(CNCc5c[nH]nn5)cc4)c(=O)nc3[nH]2)c1` [Compound 121] and `C[C@H](N)CCCc1cc(SC(F)(F)F)cc(-c2cc3cn(-c4ccc(CNCc5nn[nH]n5)cc4)c(=O)nc3[nH]2)c1` [Compound 163] cannot be ordered by MIC: > 16 µg/mL for the first, > 16 µg/mL for the second.

`CNCCNCc1ccc(-n2cc3cc(-c4cc(CCC[C@H](C)N)cc(Cl)c4F)[nH]c3nc2=O)cc1` [Compound 123] and `CC(N)CCNCc1ccc(-n2cc3cc(-c4cc(CCC[C@H](C)N)cc(Cl)c4F)[nH]c3nc2=O)cc1` (stereo partly drawn) [Compound 160] cannot be ordered by MIC: < 16 µg/mL for the first, < 16 µg/mL for the second.

`CNCCNCc1ccc(-n2cc3cc(-c4cc(CCC[C@H](C)N)cc(SC(F)(F)F)c4)[nH]c3nc2=O)cc1` [Compound 124] and `COC(=O)CCNCc1ccc(-n2cc3cc(-c4cc(CCC[C@H](C)N)cc(SC(F)(F)F)c4)[nH]c3nc2=O)cc1` [Compound 141] cannot be ordered by MIC: > 16 µg/mL for the first, > 16 µg/mL for the second.

`CNCCNCc1ccc(-n2cc(-c3cc4cn(-c5ccc(CNCCNC)cc5)c(=O)nc4[nH]3)c(N)nc2=O)cc1` [Compound 125] and `C[C@H](N)CCCc1cc(Cl)c(F)c(-c2cc3cn(-c4ccc(CNCc5ccc(=O)[nH]c5)cc4)c(=O)nc3[nH]2)c1` [Compound 149] cannot be ordered by MIC: > 16 µg/mL for the first, > 16 µg/mL for the second.

`O=c1nc2[nH]ccc2cn1-c1ccc(CNCc2ccncc2)cc1` [Compound 126] and `COc1ccc(CNCc2ccc(-n3cc4cc[nH]c4nc3=O)cc2)cn1` [Compound 144] cannot be ordered by MIC: > 16 µg/mL for the first, > 16 µg/mL for the second.

`C[C@H](N)CCCc1cc(Cl)c(F)c(-c2cc3cn(-c4ccc(CNCc5ccncc5)cc4)c(=O)nc3[nH]2)c1` [Compound 127] and `COc1ccc(CNCc2ccc(-n3cc4cc(-c5cc(CCC[C@H](C)N)cc(Cl)c5F)[nH]c4nc3=O)cc2)cn1` [Compound 145] cannot be ordered by MIC: > 16 µg/mL for the first, > 16 µg/mL for the second.

`C[C@H](N)CCCc1cc(SC(F)(F)F)cc(-c2cc3cn(-c4ccc(CNCc5ccncc5)cc4)c(=O)nc3[nH]2)c1` [Compound 128] and `C[C@H](N)CCCc1cc(SC(F)(F)F)cc(-c2cc3cn(-c4ccc(CNCc5ccc(=O)[nH]c5)cc4)c(=O)nc3[nH]2)c1` [Compound 147] cannot be ordered by MIC: > 16 µg/mL for the first, > 16 µg/mL for the second.

`O=c1nc2[nH]ccc2cn1-c1ccc(CNCc2c[nH]nn2)cc1` [Compound 129] and `CNCCNCc1ccc(-n2cc3cc[nH]c3nc2=O)cc1` [Compound 142] cannot be ordered by MIC: > 16 µg/mL for the first, > 16 µg/mL for the second.

`COc1ccc(Cn2cc(CNCc3ccc(-n4cc5cc[nH]c5nc4=O)cc3)nn2)cc1` [Compound 131] and `O=C(O)CCNCc1ccc(-n2cc3cc[nH]c3nc2=O)cc1` [Compound 138] cannot be ordered by MIC: > 16 µg/mL for the first, > 16 µg/mL for the second.

`C[C@H](NCCCNC(=N)N)c1ccc(-n2cc3cc(-c4cc(SC(F)(F)F)cc([C@H](O)CC[C@H](N)CCO)c4)[nH]c3nc2=O)cc1` [Compound 132] and `C[C@H](NCCCNC(=N)N)c1ccc(-n2cc3cc(-c4cc(SC(F)(F)F)cc([C@H](O)CC[C@@H](N)CCO)c4)[nH]c3nc2=O)cc1` [Compound 133] cannot be ordered by MIC: < 16 µg/mL for the first, < 16 µg/mL for the second.

`C[C@H](NCCCNC(=N)N)c1ccc(-n2cc3cc(-c4cc(SC(F)(F)F)cc([C@H](O)CCC(N)C(O)CO)c4)[nH]c3nc2=O)cc1` (stereo partly drawn) [Compound 134] and `C[C@H](N)CCCc1cc(-c2cc3cn(-c4ccc([C@H](C)NCCCNC(=N)N)cc4)c(=O)nc3[nH]2)cc([S+]([O-])C(F)(F)F)c1` (stereo partly drawn) [Compound 164] cannot be ordered by MIC: < 16 µg/mL for the first, < 16 µg/mL for the second.

`C[C@H](NCCCNC(=N)N)c1ccc(-n2cc3cc(-c4cc(CCC[C@@H](N)CF)cc(Cl)c4F)[nH]c3nc2=O)cc1` [Compound 135] and `COC[C@H](N)CCCc1cc(Cl)c(F)c(-c2cc3cn(-c4ccc([C@H](C)NCCCNC(=N)N)cc4)c(=O)nc3[nH]2)c1` [Compound 171] cannot be ordered by MIC: < 16 µg/mL for the first, < 16 µg/mL for the second.

`C[C@H](N)CCCc1cc(Cl)c(F)c(-c2cc3cn(-c4ccc(CN)cc4)c(=O)nc3[nH]2)c1` [Compound 136] and `C[C@H](N)CCCc1cc(Cl)c(F)c(-c2cc3cn(-c4ccc(CNCC(=N)N)cc4)c(=O)nc3[nH]2)c1` [Compound 169] cannot be ordered by MIC: > 16 µg/mL for the first, > 16 µg/mL for the second.

`C[C@H](N)CCCc1cc(SC(F)(F)F)cc(-c2cc3cn(-c4ccc(CN)cc4)c(=O)nc3[nH]2)c1` [Compound 137] and `C[C@H](N)CCCc1cc(SC(F)(F)F)cc(-c2cc3cn(-c4ccc(CNCC#N)cc4)c(=O)nc3[nH]2)c1` [Compound 170] cannot be ordered by MIC: > 16 µg/mL for the first, > 16 µg/mL for the second.

First: C[C@H](N)CCCc1cc(Cl)c(F)c(-c2cc3cn(-c4ccc(CNCCC(=O)O)cc4)c(=O)nc3[nH]2)c1 [Compound 139]
Second: C[C@H](N)CCCc1cc(Cl)c(F)c(-c2cc3cn(-c4ccc(CNCC[C@@H](N)CO)cc4)c(=O)nc3[nH]2)c1 [Compound 167]
The MIC of the first is higher: > 16 µg/mL for the first, < 16 µg/mL for the second.

`C=C[C@H](N)CCNCc1ccc(-n2cc3cc(-c4cc(CCC[C@H](C)N)cc(Cl)c4F)[nH]c3nc2=O)cc1` [Compound 143] and `C=C[C@@H](N)CCNCc1ccc(-n2cc3cc(-c4cc(CCC[C@H](C)N)cc(Cl)c4F)[nH]c3nc2=O)cc1` [Compound 173] cannot be ordered by MIC: < 16 µg/mL for the first, < 16 µg/mL for the second.

`COc1ccc(CNCc2ccc(-n3cc4cc(-c5cc(CCC[C@H](C)N)cc(SC(F)(F)F)c5)[nH]c4nc3=O)cc2)cn1` [Compound 146] and `C[C@H](N)CCCc1cc(SC(F)(F)F)cc(-c2cc3cn(-c4ccc(CNCc5cnc(N)s5)cc4)c(=O)nc3[nH]2)c1` [Compound 159] cannot be ordered by MIC: > 16 µg/mL for the first, > 16 µg/mL for the second.

`C[C@H](N)CCCc1cc(Cl)c(F)c(-c2cc3cn(-c4ccc(CNCC[C@@H](N)C5CC5)cc4)c(=O)nc3[nH]2)c1` [Compound 148] and `CC(C)[C@H](N)CCNCc1ccc(-n2cc3cc(-c4cc(CCC[C@H](C)N)cc(Cl)c4F)[nH]c3nc2=O)cc1` [Compound 155] cannot be ordered by MIC: < 16 µg/mL for the first, < 16 µg/mL for the second.

`CC[C@H](N)CCNCc1ccc(-n2cc3cc(-c4cc(CCC[C@H](C)N)cc(Cl)c4F)[nH]c3nc2=O)cc1` [Compound 152] and `COC[C@H](N)CCNCc1ccc(-n2cc3cc(-c4cc(CCC[C@H](C)N)cc(Cl)c4F)[nH]c3nc2=O)cc1` [Compound 178] cannot be ordered by MIC: < 16 µg/mL for the first, < 16 µg/mL for the second.

`C[C@H](N)CCCc1cc(Cl)c(F)c(-c2cc3cn(-c4ccc([C@@H](N)CCNc5nccs5)cc4)c(=O)nc3[nH]2)c1` [Compound 153] and `C[C@H](N)CCCc1cc(SC(F)(F)F)cc(-c2cc3cn(-c4ccc([C@@H](N)CCNc5nccs5)cc4)c(=O)nc3[nH]2)c1` [Compound 157] cannot be ordered by MIC: > 16 µg/mL for the first, > 16 µg/mL for the second.

`CC(C)[C@@H](N)CCNCc1ccc(-n2cc3cc(-c4cc(CCC[C@H](C)N)cc(Cl)c4F)[nH]c3nc2=O)cc1` [Compound 156] and `C[C@H](N)CCCc1cc(Cl)c(F)c(-c2cc3cn(-c4ccc(CNCCC(C)(C)N)cc4)c(=O)nc3[nH]2)c1` [Compound 175] cannot be ordered by MIC: < 16 µg/mL for the first, < 16 µg/mL for the second.

`C[C@H](N)CCCc1cc(Cl)c(F)c(-c2cc3cn(-c4ccc(CNCc5cnc(N)s5)cc4)c(=O)nc3[nH]2)c1` [Compound 158] and `C[C@H](N)CCCc1cc(Cl)c(F)c(-c2cc3cn(-c4ccc(CNCC#N)cc4)c(=O)nc3[nH]2)c1` [Compound 165] cannot be ordered by MIC: > 16 µg/mL for the first, > 16 µg/mL for the second.

`C[C@H](N)CCCc1cc(Cl)c(F)c(-c2cc3cn(-c4ccc([C@@H](N)CCN(C(=O)c5ccccc5)c5nccs5)cc4)c(=O)nc3[nH]2)c1` [Compound 161] and `C[C@H](N)CCCc1cc(Cl)c(F)c(-c2cc3cn(-c4ccc(CNCCC(N)C(F)(F)F)cc4)c(=O)nc3[nH]2)c1` (stereo partly drawn) [Compound 172] cannot be ordered by MIC: > 16 µg/mL for the first, > 16 µg/mL for the second.

Going from `CCOC(=N)CNCc1ccc(-n2cc3cc(-c4cc(CCC[C@H](C)N)cc(Cl)c4F)[nH]c3nc2=O)cc1` [Compound 166] to `CN[C@H](CCNCc1ccc(-n2cc3cc(-c4cc(CCC[C@H](C)N)cc(Cl)c4F)[nH]c3nc2=O)cc1)COC` [Compound 179], the MIC falls from > 16 µg/mL to < 16 µg/mL.

`N=C(N)NCCCN[C@@H](CCF)c1ccc(-n2cc3cc(-c4cc(CCC[C@@H](N)CF)cc(Cl)c4F)[nH]c3nc2=O)cc1` [Compound 168] and `C=C[C@@H](CCNCc1ccc(-n2cc3cc(-c4cc(CCC[C@H](C)N)cc(Cl)c4F)[nH]c3nc2=O)cc1)NC(=N)N` [Compound 177] cannot be ordered by MIC: < 16 µg/mL for the first, < 16 µg/mL for the second.

`C[C@H](N)CCCc1cc(Cl)c(F)c(-c2cc3cn(-c4ccc(CNCC[C@@H](NC(=N)N)C5CC5)cc4)c(=O)nc3[nH]2)c1` [Compound 174] and `C=C[C@H](CCNCc1ccc(-n2cc3cc(-c4cc(CCC[C@H](C)N)cc(Cl)c4F)[nH]c3nc2=O)cc1)NC(=N)N` [Compound 180] cannot be ordered by MIC: < 16 µg/mL for the first, < 16 µg/mL for the second.

`C[C@H](N)CCCc1cc(SC(F)(F)F)cc(-c2cc3cn(-c4ccc(CNCCC(C)(C)N)cc4)c(=O)nc3[nH]2)c1` [Compound 176] was tested, and the MIC was < 16 µg/mL.
